Consider five compounds from ChEMBL document CHEMBL4219158 (Bioorg Med Chem Lett, 2018).

Assay [1] concerns the target T1, 5-hydroxytryptamine receptor 2A (Homo sapiens, UniProt P28223). The experiment in a line: Antagonist activity at human recombinant 5-HT2A receptor expressed in CHOK1 cells assessed as inhibition of serotonin-induced calcium release preincubated for 15 mins followed by 5-HT addition measured every 1.7 secs for 60 secs by calcium 4 dye-based FLIPR assay. It is filed as functional, cell-based.

The target of assay [2] is T1, 5-hydroxytryptamine receptor 2A. The experiment in a line: Agonist activity at human recombinant 5-HT2A receptor expressed in CHOK1 cells assessed as induction of calcium release incubated for 15 mins measured every 1.7 secs for 60 secs by calcium 4 dye-based FLIPR assay. The format is functional, cell-based.

By IC50 is commonly meant the concentration at which inhibition is half-maximal.

Active and inactive are the calls of the source. The rule behind the calls is not given here.

T1 sequence (P28223 whole entry): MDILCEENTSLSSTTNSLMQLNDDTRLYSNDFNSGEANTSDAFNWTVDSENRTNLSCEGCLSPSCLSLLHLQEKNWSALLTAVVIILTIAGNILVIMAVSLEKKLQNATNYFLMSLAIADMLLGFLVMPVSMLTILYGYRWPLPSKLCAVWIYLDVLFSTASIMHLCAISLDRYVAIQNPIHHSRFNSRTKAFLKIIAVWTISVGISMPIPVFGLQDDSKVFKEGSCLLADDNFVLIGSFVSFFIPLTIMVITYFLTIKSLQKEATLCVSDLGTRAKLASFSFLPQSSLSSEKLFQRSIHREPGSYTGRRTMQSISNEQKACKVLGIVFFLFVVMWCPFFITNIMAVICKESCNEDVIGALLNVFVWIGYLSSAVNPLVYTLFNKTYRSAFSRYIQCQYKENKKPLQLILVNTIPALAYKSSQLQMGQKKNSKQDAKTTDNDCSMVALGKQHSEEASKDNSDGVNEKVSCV

As for `COc1c(OCCOCCOc2cn(CCOCCOc3cccc([C@H](O)C4CCN(CCc5ccc(F)cc5)CC4)c3OC)nn2)cccc1[C@H](O)C1CCN(CCc2ccc(F)cc2)CC1`, in assay [1], the IC50 is 36.5 nM and the inhibition result was “Dose-dependent effect”. In addition, the result in assay [2] was inactive.
For `COc1c(OCCOCCN=[N+]=[N-])cccc1[C@H](O)C1CCN(CCc2ccc(F)cc2)CC1` the same measures were 46.7 nM, “Dose-dependent effect” and “inactive”.
As to `COc1c(OCCOCCOCCOCCOCCOc2cccc(C(=O)C3CCN(CCc4ccc(F)cc4)CC3)c2OC)cccc1C(=O)C1CCN(CCc2ccc(F)cc2)CC1`, the IC50 in assay [1] stood at 29.5 nM.
On the same count and under the same terms, then `COc1c(OCCOCCOCCOCCOCCOCCOc2cccc(C(=O)C3CCN(CCc4ccc(F)cc4)CC3)c2OC)cccc1C(=O)C1CCN(CCc2ccc(F)cc2)CC1`, with 39.8 nM.
Take `C#CCOCCOCCOc1cccc([C@H](O)C2CCN(CCc3ccc(F)cc3)CC2)c1OC`: in assay [1], the IC50 is 56.6 nM and the inhibition entry was “Dose-dependent effect”. In addition, in assay [2], the outcome was inactive.
